Reference: US20250368623A1, “PYRIDAZINONE-DERIVED COMPOUNDS FOR THE MODULATION OF MYC AND FOR MEDICAL USES” (GENETIC INTELLIGENCE, INC, priority 2022, published 2025)

Assays:
Format in all cases: cell-based
[1] = system: MYC protein; assay: Western blot of MYC protein in human cancer cell lines; conditions: about 1 μM, 2-day incubation, e.g., A549 or HepG2, GAPDH loading control, vs DMSO
Method: The level of reduction of MYC protein following treatment with test compounds is also assessed by Western blot according to the following protocol. The human cancer cell lines (e.g., A549 or HepG2) are seeded at 20,000 cells per well in a 96-well plate. After 1 day, the cells are treated with test compounds at a final concentration of about 1 μM. After a 2-day incubation period, the supernatant is removed from the wells and RIPA buffer is added to create cell lysates. The lysates are analyzed by Western blot and probed with a MYC-specific antibody (e.g., Proteintech 10828-1-AP) together with a GAPDH-specific antibody (e.g., Proteintech 10494-1-AP) to serve as loading control. The intensities of Western blot bands are quantified by FIJI (Image J). The relative expression value of MYC following treatment with a test compound is calculated by dividing the intensity of the MYC band of the sample with the intensity of its own GAPDH band. The value so obtained is presented as a percentage of that of the no-compound, solvent only (DMSO)-treated sample. A lower percentage of MYC protein in a sample with respect to the DMSO-treated sample indicates greater percentage reduction in MYC protein level due to the test compound, and vice versa.

[2] = system: HepG2; assay: CCK-8 cell viability assay, HepG2; conditions: Homo sapiens; CCK-8, HepG2, 2-day or 3-day incubation, cytotoxic effect
Method: The effect of test compounds on cell viability is determined using the CCK-8 assay kit (Dojindo CK04-1000) according to the following protocol. The human cancer cell lines (e.g., A549, HepG2, JeKo-1, MDA-MB-231, etc.) and non-cancer human cell lines (e.g., HEK-293, HaCaT, etc.), are seeded at 20,000 cells per well in a 96-well plate. After 1 day, the cells are treated with test compounds at various final concentrations (e.g., 10 nM, 31.6 nM, 100 nM, 316 nM, 1 μM, 3.16 μM, 10 μM, 20 μM, etc.). After a 2-day or 3-day incubation period, 10 μL of CCK-8 solution, which contains the WST-8 dye, is added to each well according to the kit manufacturer's protocol. After incubation for 1-4 hours, the absorbance at 450 nm is measured using a microplate reader. The absorbance at 450 nm measures the amount of WST-8 that is reduced to WST-8 formazan by cellular dehydrogenases, which is directly proportional to the number of living cells. The cytotoxic effect of test compounds at different concentrations is calculated by subtracting from 1 the ratio of absorbance of the compound-treated sample at 450 nm to that of the no-compound, solvent only (DMSO)-treated sample. […] The IC50 values for the cytotoxic effect of each test compound in A549, HepG2, JeKo-1, and/or MDA-MB-231 cells are determined by plotting a dose-response curve to calculate the concentration of test compound that produces half of the maximum cytotoxic effect.

[3] = system: MYC RNA; assay: RT-qPCR of MYC RNA in human cancer cell lines; conditions: 24 h, about 1 μM, 1-day incubation, e.g., A549, HepG2, beta-actin normalized, vs DMSO, read-out: % reduction of MYC RNA
Method: The level of reduction of MYC RNA following treatment with test compounds is assessed using RT-qPCR according to the following protocol. The human cancer cell lines (e.g., A549, HepG2) are seeded at 20,000 cells per well in a 96-well plate. After 1 day, the cells are treated with test compounds at a final concentration of about 1 μM. After a 1-day incubation period, the supernatant is removed from the wells and lysis solution from the Cells-to-CT 1-Step Power SYBR Green Kit (Invitrogen A25599) is added to create cell lysates, according to the kit manufacturer's protocol. The kit manufacturer's protocol is then followed to perform RT-qPCR for each sample using a pair of MYC-specific primers (e.g., SEQ ID NO: 4 and SEQ ID NO: 5) to detect MYC RNA, as well as a pair of beta-actin-specific primers (e.g., SEQ ID NO: 6 and SEQ ID NO: 7) to detect beta-actin RNA, which serves as a loading control. The relative expression levels of MYC and beta-actin RNAs are calculated using a standard curve generated from a dilution series of untreated cell lysates. The normalized level of MYC RNA following treatment with a test compound is calculated by dividing the relative expression level of MYC in the sample by the relative expression level of beta actin in the same sample. The value so obtained is presented as a percentage of that of the no-compound, solvent only (DMSO)-treated sample. A lower percentage of MYC RNA in a sample with respect to the DMSO-treated sample indicates greater percentage reduction in MYC RNA levels due to the test compound, and vice versa.

[4] = system: MYC protein; assay: MYC HTRF assay, MYC protein level in human cell lines; conditions: about 20 μM, 2-day incubation, human cell lines (e.g., A549, HepG2), vs DMSO-treated sample
Method: The MYC homogenous time-resolved fluorescence (HTRF) assay kit (CisBio/Perkin Elmer 63ADK053PEG) is used to quantify the level of MYC protein in human cell lines (e.g., A549, HepG2) following treatment with test compounds, according to the following protocol. Human cells cultured in DMEM-10% FBS media are seeded at 20,000 cells per well in a 96-well plate. After 1 day, the cells are treated with test compounds at a final concentration of about 20 μM. After a 2-day incubation period, the supernatant is removed from the wells and the HTRF assay is carried out according to the kit manufacturer's protocol. In brief, lysis buffer #4 is added to create cell lysates. 10 μL of cell lysate is added to 10 μL of premixed antibody solution (anti-human My c-Eu cryptate antibody and anti-human Myc-d2 antibody) prepared in detection buffer #3 in a 384-well low-volume white-walled plated. After 3 h of incubation, fluorescence readings are taken at the emission wavelengths of donor and acceptor fluorophores (620 nm and 665 nm respectively) using a HTRF-compatible plate reader. The ratio of acceptor and donor fluorescence emission signals for each sample is calculated by dividing the fluorescence signal at 665 nm by the signal at 620 nm, and further normalized by dividing with the concentration of total protein in that sample as determined by the BCA assay. The values so obtained are presented as a percentage of that of the no-compound, solvent only (DMSO)-treated samples. A lower percentage of MYC protein in a sample with respect to the DMSO-treated sample indicates greater percentage reduction in MYC protein level due to the test compound, and vice versa.

[5] = system: MDA-MB-231; assay: CCK-8 cell viability assay, MDA-MB-231; conditions: Homo sapiens; CCK-8, MDA-MB-231, 2-day or 3-day incubation, cytotoxic effect
Method: (§1) The effect of test compounds on cell viability is determined using the CCK-8 assay kit (Dojindo CK04-1000) according to the following protocol. The human cancer cell lines (e.g., A549, HepG2, JeKo-1, MDA-MB-231, etc.) and non-cancer human cell lines (e.g., HEK-293, HaCaT, etc.), are seeded at 20,000 cells per well in a 96-well plate. After 1 day, the cells are treated with test compounds at various final concentrations (e.g., 10 nM, 31.6 nM, 100 nM, 316 nM, 1 μM, 3.16 μM, 10 μM, 20 μM, etc.). After a 2-day or 3-day incubation period, 10 μL of CCK-8 solution, which contains the WST-8 dye, is added to each well according to the kit manufacturer's protocol. After incubation for 1-4 hours, the absorbance at 450 nm is measured using a microplate reader. The absorbance at 450 nm measures the amount of WST-8 that is reduced to WST-8 formazan by cellular dehydrogenases, which is directly proportional to the number of living cells. The cytotoxic effect of test compounds at different concentrations is calculated by subtracting from 1 the ratio of absorbance of the compound-treated sample at 450 nm to that of the no-compound, solvent only (DMSO)-treated sample. A higher number indicates a greater cytotoxic effect of the test compound on cells (corresponding to a greater reduction in cellular dehydrogenase activity), and vice versa. The IC50 values for the cytotoxic effect of each test compound in A549, HepG2, JeKo-1, and/or MDA-MB-231 cells are determined by plotting a dose-response curve to calculate the concentration of test compound that produces half of the maximum cytotoxic effect. The cytotoxic effect and IC50 of test compounds are also measured in a non-cancer human cell line (e.g., HEK-293, and/or HaCaT) as a proxy for healthy cells to determine the therapeutic window of the test compounds (i.e., the concentration range at which the test compounds selectively kill cancer cells but not healthy cells). The therapeutic index of a test compound is defined herein as its IC50 in HEK-293 cells divided by its IC50 in HepG2 cells.

[6] = system: JeKo-1; assay: CCK-8 cell viability assay, JeKo-1; conditions: Homo sapiens; CCK-8, JeKo-1, 2-day or 3-day incubation, cytotoxic effect
Method: as §1

[7] = system: A549; assay: CCK-8 cell viability assay, A549; conditions: Homo sapiens; CCK-8, A549, 2-day or 3-day incubation, cytotoxic effect
Method: The effect of test compounds on cell viability is determined using the CCK-8 assay kit (Dojindo CK04-1000) according to the following protocol. The human cancer cell lines (e.g., A549, HepG2, JeKo-1, MDA-MB-231, etc.) and non-cancer human cell lines (e.g., HEK-293, HaCaT, etc.), are seeded at 20,000 cells per well in a 96-well plate. After 1 day, the cells are treated with test compounds at various final concentrations (e.g., 10 nM, 31.6 nM, 100 nM, 316 nM, 1 μM, 3.16 μM, 10 μM, 20 μM, etc.). After a 2-day or 3-day incubation period, 10 μL of CCK-8 solution, which contains the WST-8 dye, is added to each well according to the kit manufacturer's protocol. After incubation for 1-4 hours, the absorbance at 450 nm is measured using a microplate reader. The absorbance at 450 nm measures the amount of WST-8 that is reduced to WST-8 formazan by cellular dehydrogenases, which is directly proportional to the number of living cells. The cytotoxic effect of test compounds at different concentrations is calculated by subtracting from 1 the ratio of absorbance of the compound-treated sample at 450 nm to that of the no-compound, solvent only (DMSO)-treated sample. […]

[8] = system: HepG2; assay: CellTiter-Glo 2.0 cell viability assay, HepG2; conditions: Homo sapiens, 48 h; CellTiter-Glo 2.0, HepG2, 2-day incubation
Method: (§2) The effect of test compounds on cell viability is also determined using the CellTiter-Glo 2.0 assay kit (Promega G9241) according to the following protocol. The human cancer cell line (e.g., HepG2) and a non-cancer human cell line (e.g., HEK-293), are seeded at 20,000 cells per well in a 96-well plate. After 1 day, the cells are treated with test compounds at various concentrations (e.g., 10 nM, 31.6 nM, 100 nM, 316 nM, 1 μM, 3.16 μM, 10 μM, 20 μM, etc.). After a 2-day incubation period, the CellTiter-Glo 2.0 assay is performed according to the kit manufacturer's protocol. […] The contents are mixed for 2 minutes on an orbital shaker to induce cell lysis, and incubated for 10 minutes at room temperature, following which the luminescent signal is measured using a microplate reader. […] The cytotoxic effect of test compounds at different concentrations is calculated by subtracting from 1 the ratio of the luminescence signal of the compound-treated sample to that of the no-compound, solvent only (DMSO)-treated sample. […] The IC50 values for the cytotoxic effect of each test compound in HepG2 cells are determined by plotting a dose-response curve to calculate the concentration of test compound that produces half of the maximum cytotoxic effect. […]

[9] = system: HEK-293; assay: CellTiter-Glo 2.0 cell viability assay, HEK-293; conditions: Homo sapiens, HEK293, 48 h; CellTiter-Glo 2.0, HEK-293, 2-day incubation
Method: as §2

[10] = system: HEK-293; assay: ApoTox-Glo Triplex assay (live-dead ratio), HEK-293; conditions: Homo sapiens, HEK293, 48 h, HEK-293, 2-day incubation
Method: The effects of test compounds on cell viability and apoptosis are determined using the ApoTox-Glo Triplex assay kit (Promega G6320) according to the following protocol. The human cancer cell line (e.g., HepG2) and a non-cancer human cell line (e.g., HEK-293), are seeded at 20,000 cells per well in a 96-well plate. After 1 day, the cells are treated with test compounds at various final concentrations (e.g., 10 nM, 31.6 nM, 100 nM, 316 nM, 1 μM, 3.16 μM, 10 μM, 20 μM, etc.). After a 2-day incubation period, the ApoTox-Glo Triplex assay is performed according to the kit manufacturer's protocol. […] After incubation for 30 minutes at 37° C., the fluorescence signal is measured at two wavelength sets (400Ex/505Em) and (485Ex/520Em) to assess live-cell protease activity and dead-cell protease activity respectively. […] After incubation for 30 minutes at room temperature, the luminescent signal is measured using a microplate reader. […]
The cytotoxic effect of test compounds according to the ApoTox-Glo Triplex assay is calculated as follows. The live-dead ratio is calculated by dividing the fluorescence signal for live-cell protease activity with the fluorescence signal for dead-cell protease activity. […]

SMILES | % reduction of MYC protein [1] [%] | IC50 [2] [µM] | inhibition at 1 µM [3] [%] | other results
Cc1nc(N2CC(n3nc(-c4ccncc4)ccc3=O)C2)c2cnn(C)c2n1 [2-(1-(1,6-dimethyl-1H-pyrazolo[3,4-d]pyrimidin-4-yl)azetidin-3-yl)-6-(pyridin-4-yl)pyridazin-3(2H)-one] | 19 | – | – | –
Cc1cncc(N2CCC(Cn3nc(-n4cncn4)ccc3=O)CC2)n1 [2-((1-(6-methylpyrazin-2-yl)piperidin-4-yl)methyl)-6-(1H-1,2,4-triazol-1-yl)pyridazin-3(2H)-one] | – | 11.2 | – | –
O=c1ccc(-n2cccn2)nn1CC1CCN(c2ncnc3cc(F)ccc23)CC1 [2-((1-(7-fluoroquinazolin-4-yl)piperidin-4-yl)methyl)-6-(1H-pyrazol-1-yl)pyridazin-3(2H)-one] | – | – | 12 | % reduction of MYC protein [4]: 74%
O=c1ccc(-c2ccncc2)nn1CC1CN(c2ncnc3[nH]cnc23)C1 [2-((1-(9H-purin-6-yl)azetidin-3-yl)methyl)-6-(pyridin-4-yl)pyridazin-3(2H)-one] | – | 6 | – | –
Cc1nc(C)c(-c2ccc(=O)n(CC3CCN(c4ncnc5[nH]cnc45)CC3)n2)s1 [2-((1-(9H-purin-6-yl)piperidin-4-yl)methyl)-6-(2,4-dimethylthiazol-5-yl)pyridazin-3(2H)-one] | – | – | 1 | % reduction of MYC protein [4]: 17%
O=c1ccc(-n2cncn2)nn1CC1CCN(c2ccc3nnc(C(F)(F)F)n3n2)CC1 [6-(1H-1,2,4-triazol-1-yl)-2-((1-(3-(trifluoromethyl)-[1,2,4]triazolo[4,3-b]pyridazin-6-yl)piperidin-4-yl)methyl)pyridazin-3(2H)-one] | 29 | 5.7 | 20 | –
O=c1ccc(-n2cccn2)nn1CC1CCN(c2ccc3nnc(C(F)(F)F)n3n2)CC1 [6-(1H-pyrazol-1-yl)-2-((1-(3-(trifluoromethyl)-[1,2,4]triazolo[4,3-b]pyridazin-6-yl)piperidin-4-yl)methyl)pyridazin-3(2H)-one] | 33 | 18.5 | 19 | –
Cc1nc(C)c(-c2ccc(=O)n(CC3CCN(c4ncnc5ncccc45)CC3(F)F)n2)s1 (stereo not shown) [6-(2,4-dimethyl-1,3-thiazol-5-yl)-2-(3,3-difluoro-1-pyrido[2,3-d]pyrimidin-4-ylpiperidin-4-yl)methylpyridazin-3-one] | – | 0.3 | – | IC50 [5]: 1 µM; IC50 [6]: 0.2 µM; IC50 [7]: 1.8 µM
Cc1nc(C)c(-c2ccc(=O)n(CC3CCN(c4ncnc5ncccc45)CC3F)n2)s1 (stereo not shown) [6-(2,4-dimethyl-1,3-thiazol-5-yl)-2-(3-fluoro-1-pyrido[2,3-d]pyrimidin-4-ylpiperidin-4-yl)methylpyridazin-3-one] | – | 0.5 | – | IC50 [5]: 1.1 µM; IC50 [6]: 0.3 µM
Cc1nc(N2CCC(Cn3nc(-c4sc(C)nc4C)ccc3=O)CC2)c2ccncc2n1 [6-(2,4-dimethylthiazol-5-yl)-2-((1-(2-methylpyrido[3,4-d]pyrimidin-4-yl)piperidin-4-yl)methyl)pyridazin-3(2H)-one] | – | – | 5 | % reduction of MYC protein [4]: 16%
Cc1cc(N2CCC(Cn3nc(-c4sc(C)nc4C)ccc3=O)CC2)ncn1 [6-(2,4-dimethylthiazol-5-yl)-2-((1-(6-methylpyrimidin-4-yl)piperidin-4-yl)methyl)pyridazin-3(2H)-one] | – | – | 19 | % reduction of MYC protein [4]: 19%
Cc1cc(C)n(-c2ccc(=O)n(C3CCN(c4nc5cccnc5n4C)CC3)n2)n1 [6-(3,5-dimethyl-1H-pyrazol-1-yl)-2-(1-(3-methyl-3H-imidazo[4,5-b]pyridin-2-yl)piperidin-4-yl)pyridazin-3(2H)-one] | 24 | 5.3 | – | –
Cc1cc(C)n(-c2ccc(=O)n(CC3CN(c4ccc5nnc(C)n5n4)C3)n2)n1 [6-(3,5-dimethyl-1H-pyrazol-1-yl)-2-((1-(3-methyl-[1,2,4]triazolo[4,3-b]pyridazin-6-yl)azetidin-3-yl)methyl)pyridazin-3(2H)-one] | 48 | – | 4 | –
CC(=O)O[C@H]1C(=O)[C@@]2(C)[C@H]([C@H](OC(=O)c3ccccc3)[C@]3(O)C[C@H](OC(=O)[C@H](O)[C@@H](NC(=O)c4ccccc4)c4ccccc4)C(C)=C1C3(C)C)[C@]1(OC(C)=O)CO[C@@H]1C[C@@H]2O [paclitaxel, reference compound] | – | – | – | IC50 [8]: 7.5 µM; IC50 [9]: 27 µM; IC50 [10]: 6.9 µM
